We go through one compound from patent US8293742B2, “Preferential vasoconstriction compositions and methods of use” (Alpha Synergy Development, Inc., priority 2008, dated 2012).

SMILES strings stand for the structures.

In assay [1] the test system is vasoconstriction, rebound hyperemia, intraocular pressure, corneal endothelial cell pump. Conditions: FIG. 2.
The next assay concerns chronic red eyes. Put plainly: Chronic red eyes, eld brimonidine vs Naphcon-A, patient satisfaction assessment (Example 5). Conditions: brimonidine at […], drops twice a day for three to five weeks, seven patients. It counts as in vivo, human. The protocol:
The treatment was through drops twice a day for three to five weeks. At the end, patient satisfaction assessment was conducted.

Assay [2] relates to postoperative hyperemia and conjunctival hemorrhage. Put plainly: Lasik prophylaxis (Example 2). Conditions: brimonidine 0.02%.
A further assay relates to red eye condition. As to the kind of experiment: Red eye study, brimonidine vs VISINE Original, cumulative red scores (Example 4). It counts as in vivo, human. The conditions noted are these: three week scores, brimonidine at […]. The protocol:
The patients were assigned “cumulative red scores” , prior to each administration (as baseline) and then 10 min after each dose, by dividing the bulbar conjunctiva into six sectors, each scored with a grade 1-3 score and the total cumulative score.

The subject of the next assay is rebound hyperemia. Put plainly: Reversal of pre-induced rebound hyperemia (FIGS. 5A-C). It counts as in vivo, human. The conditions noted are these: right eye, brimonidine at […] after VISINE Original. The source says:
FIG. 5A is a baseline visual appearance of two eyes of a patient with an ocular condition.

Assay [3] relates to eyes of a patient with an ocular condition. Conditions: brimonidine 0.01-[…] (left eye) compared with tetrahydrozoline 0.05%, oxymetazoline […], naphazoline […] (right eye); baseline redness 4/4. The source says: In an average clinical situation, baseline redness is at 1-1.5/4.

With `Brc1c(N=C2NCCN2)ccc2nccnc12.O=C(O)C(O)C(O)C(=O)O` [brimonidine, 5-bromo-6-(2-imidazolidinylideneamino)quinoxaline L-tartrate], the “concentration at which intraocular pressure reduction and corneal endothelial cell pump inhibition are just at their maximum” value in assay [1] is given as “about 0.09%”. Besides, the “concentration below which intraocular pressure reduction and endothelial cell pump inhibition drop off exponentially” value in assay [1] (vasoconstrictive effect remains largely unchanged) is reported as “below 0.08%”. Also, the patient-reported redness entry in the assay on chronic red eyes is reported as “All patients reported reduced redness”. Also, the “cosmetic appearance from day 1 vs. no vasoconstrictor and vs. Naphcon-A” value in assay [2] was “much improved”. Further, the “eye appearance after Lasik” value in assay [2] (group expanded to over 500 eyes) is reported as “white quiet eye is noted in most patients”. Further, the “average redness count after administration (went down to)” value with red eye condition turned out to be 1.6. Besides, in the assay on rebound hyperemia, the “reversal of induced rebound hyperemia” value is on record as “reversing the VISINE Original® induced rebound hyperemia”. For the same compound, in assay [3], the “scleral whitening brightening effects” value is on record as “significant scleral whitening brightening effects”.
